In brackets after ≈: the same amount, converted by molar mass.
Experiments:
[1] = tested on: BAA 2108 (MDRPA clinical isolate); set-up: method as in PMID 37922420; conditions: cited from earlier work
PA 9027 = tested on: PA 9027; set-up: method as in PMID 37922420; conditions: cited from earlier work
[2] = tested on: BAA 2109 (MDRPA clinical isolate); set-up: method as in PMID 37922420; conditions: cited from earlier work
[3] = tested on: BAA 2110 (MDRPA clinical isolate); set-up: method as in PMID 37922420; conditions: cited from earlier work
[4] = tested on: PΔ6 (efflux knockout strain of PA); set-up: method as in PMID 37922420; conditions: cited from earlier work
[5] = tested on: PA electron transport chain; set-up: method as in PMID 37922420; conditions: previously determined; cited from earlier work
PA ATP synthase [6] = target: T1, PA ATP synthase (Pseudomonas aeruginosa, UniProt Q9HT15); set-up: method as in PMID 37922420; conditions: previously determined; cited from earlier work
T1 construct: a whole operon plasmid that expresses; made in house; host or cells: Escherichia coli DK8 (K-12 strain lacking the unc operon) transformed with pASH20; used as inverted membrane vesicles, not purified

[7] = tested on: PA electron transport chain; test: Electron transport activity (ACMA fluorescence quenching) in PA 9027 inverted membrane vesicles; assay type: biochemical, Pseudomonas aeruginosa
Source text: The assay for PA ATP synthase activity in EC DK8/pASH20 membrane vesicles requires a functional EC ETC, so potent inhibition of the EC ETC by any compound would interfere with the determination of its IC50 for PA ATP synthase. […] Furthermore, potent inhibition of PA ETC could be an alternative mechanism of action for the antibacterial activity of the current series.
(§1) Determination of electron transport activity. As previously described,11 inverted membrane vesicles from PA 9027 or E. coli DK8 pASH20 were added to HMK buffer containing 0.3 µg/mL 9-amino-6-chloro-2-methoxyacridine (ACMA) and 0-64 µg/mL test compound in DMSO. After measurement of baseline ACMA fluorescence for 60 s, redox-driven H+ pumping was initiated by addition of NADH to 0.8 mM, and fluorescence quenching was monitored for 120 s before addition of nigericin to 0.5 µg/mL. Relative activity is reported as the minimum fluorescence value normalized to the maximum fluorescence value following addition of nigericin.

[8] = tested on: EC electron transport chain; test: Electron transport activity (ACMA fluorescence quenching) in E. coli DK8 pASH20 inverted membrane vesicles; assay type: biochemical, Escherichia coli
Experimental: as §1

PA ATP synthase [9] = target: T1, PA ATP synthase; test: Inhibition of NADH-driven PA ATP synthesis activity in DK8/pASH20 inverted membrane vesicles (end-point luciferin/luciferase assay); assay type: biochemical; conditions: <4 μg/mL; IC50 could not be determined
[10] = Solubility in the assay medium; assay type: physicochemical; conditions: assay medium of the ATP synthesis inhibition assay; read-out: Solubility in the assay medium (poor/insoluble above this concentration)

Compound: CN(C)Cc1ccc(CNCc2cc3ccccc3nc2SCc2ccccc2)cc1 [Compound 2]
- MIC BAA 2108 [1]: 64 µg/mL (≈ 150 µM)
- MIC PA 9027 (PA 9027): >128 µg/mL
- MIC BAA 2109 [2]: >128 µg/mL
- MIC BAA 2110 [3]: >128 µg/mL
- MIC PΔ6 [4]: 16 µg/mL (≈ 37.4 µM)
- PA ETC IC50 [5]: 27 µg/mL
- IC50 (PA ATP synthase [6]): ~4.68 µM

Compound: CN(C)c1ccc(CNCc2cc3ccccc3nc2SCc2ccccc2)cc1 [Compound 12]
- PA ETC inhibition (in words) [7]: displayed some PA and EC ETC
- EC ETC inhibition (in words) [8]: displayed some PA and EC ETC
- PA ATP synthase inhibition (in words) (PA ATP synthase [9]): potent PA ATP synthase inhibition at low concentrations
- solubility [10]: ≤ 16 µg/mL
